Measurements from patent US8362070B2, “Application of puerarin in the preparation of P2X3 mediated drugs for pain/nervous system diseases” (Nanchang University, priority 2009, dated 2013).

How the values were obtained:
Type in all cases: in vivo, rat
[1] = test system: rats that suffer from superficial second degree foot burn; assay: Thermal hyperalgesia (thermal withdrawal latency) in rats with foot burn; conditions: for thermal withdrawal latency (TWL) in comparison to group III (burn) / thermal withdrawal latency (TWL) after 144 hours: superficial second degree foot burn + drug; for thermal withdrawal latency (TWL) in comparison to group III (burn): 24 hours after burn, p<0.01
Description: Male SD rats, 220-250 g, 60 rats were included, which were provided by the Department of Experimental Animals from the Medical College of Nanchang University, and the animals were divided into different groups at random. Group I was the group of sham burn in skin of feet; group II was the group of puerarin injection+first degree or superficial second degree burn in skin of feet; group III was the group of physiological saline+first degree or superficial second degree burn in skin of feet; group IV was the group of sham burn in skin of back; group V was the group of puerarin injection+first degree or superficial second degree burn in skin of back; group VI was the group of physiological saline+first degree or superficial second degree burn in skin of back. Puerarin injection was dissolved in physiological saline and the concentration was 50 mg/mL. vena caudalis injection of 4 mL/kg physiological saline was carried out for the rats in group III and […] 0.5 h before burn, and the injection was carried out once a day until the termination of the test; […], and the injection was carried out once a day until the termination of the test; skin of feet or back of the rats from group I and group IV (the sham burn group) were immersed in warm water of 37° C. for 8 seconds.
After the rats were anesthetized by ether, their right posterior feet were immersed in hot water of 70° C. for 5 seconds or 8 seconds, then they were raised in separate cages after burn. The mechanical withdrawal threshold and the thermal withdrawal threshold in their right posterior feet were measured respectively before burn (Oh) and 1, 24, 48, 72, 96, 120, 144 hours after burn (the room temperature was maintained at 22±0.5° C.).
The organic glass box was placed on a glass plate of 3 mm thick and BME-410C type automatic thermalgia stimulator was used to irradiate the footplates of rats. The time for the appearance of leg withdrawal after the irradiation on footplates of rats by using the thermal radiation stimulator was considered as the thermal withdrawal latency (TWL). The time for cutting off was 25 seconds in order to prevent burn on tissues.
The organic glass box was placed on a glass plate of 3 mm thick and BME-410C type automatic thermalgia stimulator (Institute of Biomedical Engineering, Chinese Academy of Medical Sciences) was used to irrdiate the footplates of rats. The time for the appearance of leg withdrawal after the irradiation on footplates of rats by using the thermal radiation stimulator was considered as the thermal withdrawal latency. The time for cutting off was 30 seconds in order to prevent burn on tissues.

[2] = test system: rats that suffer from superficial second degree foot burn; assay: Mechanical hyperalgesia (mechanical withdrawal threshold) in rats with foot burn; conditions: for mechanical withdrawal threshold (MWT) in comparison to group III (burn) / mechanical withdrawal threshold (MWT) after 72 hours or 96 hours: superficial second degree foot burn + drug; for mechanical withdrawal threshold (MWT) in comparison to group III (burn): p<0.01; for mechanical withdrawal threshold (MWT) after 72 hours or 96 hours: vs groups I, II, V p>0.05
Description: Male SD rats, 220-250 g, 60 rats were included, which were provided by the Department of Experimental Animals from the Medical College of Nanchang University, and the animals were divided into different groups at random. Group I was the group of sham burn in skin of feet; group II was the group of puerarin injection+first degree or superficial second degree burn in skin of feet; group III was the group of physiological saline+first degree or superficial second degree burn in skin of feet; group IV was the group of sham burn in skin of back; group V was the group of puerarin injection+first degree or superficial second degree burn in skin of back; group VI was the group of physiological saline+first degree or superficial second degree burn in skin of back. Puerarin injection was dissolved in physiological saline and the concentration was 50 mg/mL. vena caudalis injection of 4 mL/kg physiological saline was carried out for the rats in group III and […] 0.5 h before burn, and the injection was carried out once a day until the termination of the test; […], and the injection was carried out once a day until the termination of the test; skin of feet or back of the rats from group I and group IV (the sham burn group) were immersed in warm water of 37° C. for 8 seconds. After the rats were anesthetized by ether, their right posterior feet were immersed in hot water of 70° C. for 5 seconds or 8 seconds, then they were raised in separate cages after burn. The mechanical withdrawal threshold and the thermal withdrawal threshold in their right posterior feet were measured respectively before burn (Oh) and 1, 24, 48, 72, 96, 120, 144 hours after burn (the room temperature was maintained at 22±0.5° C.). BME-403 Von Frey fine thread was used to detect the mechanical withdrawal threshold (MWT). The rats were kept in transparent organic glass box (22×12×22 cm^3), and the bottom of the organic glass box was made of wire netting of 1×1 cm^2. The rats were raised in the laboratory after operations and they were kept in the organic glass box for accommodation for 15 min before the detection. The bending forces were 0.13, 0.20, 0.33, 0.60, 1.30, 3.60, 5.00, 7.30, 9.90, 20.1 g respectively. Each test was performed for ten times from the smallest bending force until the frequency of withdrawal was higher than 5/10, namely 50% reaction threshold (that was the value for inducing five reactions in ten tests). The biggest bending force was 20.1 g and bending forces≧20.1 g were recorded as 20.1 g. The interval between two stimulations was at least more than 15 seconds until the stimulation-induced reactions (such as licking feet and throwing legs) completely disappeared. BME-403 Von Frey fine thread was used to determine the mechanical withdrawal threshold (MWT). The rats were kept in transparent organic glass box (22×12×22 cm^3), and the bottom of the organic glass box was made of wire netting of 1×1 cm^2. The rats were raised in the laboratory after operations and they were kept in the organic glass box for accommodation for 15 minutes before the detection. The bending forces were 0.13, 0.20, 0.33, 0.60, 1.30, 3.60, 5.00, 7.30, 9.90, 20.1 g respectively, and bending forces≧20.1 g were recorded as 20.1 g. […]

[3] = test system: P2X3 receptor; assay: Immunohistochemical analysis of P2X3 expression in dorsal root ganglion of burn rats; conditions: n=10
Procedure: SD rats (their body weights were 200±20 g) were randomly divided into the group I (sham back burn), the group II (Puerarin, intraperitoneal injection), the group III (superficial second degree back burn), the group IV (superficial second degree back burn+puerarin), the group V (control) and the group VI (superficial second degree back burn+Indocin). The rats in the group IV (superficial second degree back burn+puerarin) were subjected to intraperitoneal injection of puerarin (100 mg/kg) everyday for continuous three days 30 minutes before burn and after burn. Immunohistochemical analysis was used to detect the change in P2X3 expression in dorsal root ganglion in burn position of rats. Results of immunohistochemical analysis were subjected to analysis by using Hmias-2000 high-resolution color medical image analysis system.

[4] = test system: P2X3 receptor; assay: Immunohistochemistry of P2X3 receptor expression in skin nerve ending of rats with back burn; conditions: superficial second degree back burn + puerarin injection i.v. daily for three days; saline+burn 152.63±22.62, sham 118.76±18.48
[5] = superficial second degree back burn + drug (puerarin 100 mg/kg i.p. three days), burn 1.21±0.04, control 1.03±0.02
[6] = puerarin alone i.p., no burn, p>0.05

Row | SMILES | thermal withdrawal latency (TWL) in comparison to group III (burn) [1] | thermal withdrawal latency (TWL) after 144 hours ([1]; p>0.05) | mechanical withdrawal threshold (MWT) in comparison to group III (burn) [2] | mechanical withdrawal threshold (MWT) after 72 hours or 96 hours [2] | average optical density (P2X3 expression, immunohistochemistry, DRG) [3, 5] | gray scale values (average optical density) of P2X3 immunologically positive nerve ending in the skin [4] | thermal withdrawal latency, comparison among sham, puerarin alone and control [1, 6] | mechanical withdrawal threshold, comparison among sham, puerarin alone and control [2, 6] | average optical density (P2X3 expression, immunohistochemistry, DRG) ([3]; puerarin alone i.p., no burn)
1 | COc1ccc2c(c1)c(CC(=O)O)c(C)n2C(=O)c1ccc(Cl)cc1 [Indocin, Indometacin] | significantly increased | almost recovered to normal level | significantly decreased | almost recovered to normal level | 1.16±0.03 |  |  |  | 
2 | O=c1c(-c2ccc(O)cc2)coc2c([C@@H]3O[C@H](CO)[C@@H](O)[C@H](O)[C@H]3O)c(O)ccc12 [puerarin] | significantly increased | almost recovered to normal level | significantly decreased | almost recovered to normal level | 1.10±0.02 | 130.42±13.35 | no significant difference | no significant difference | 1.01±0.02
